Measurements reported in patent US10300051B2, “Cyclopropylamines as LSD1 inhibitors” (priority 2014, dated 2019).

The compounds below were run against LSD-1 enzyme (Homo sapiens (Human), UniProt O60341). Conditions: 1 nM LSD-1 enzyme, 1 hour preincubation at 25° C., Biotin-labeled Histone H3 peptide substrate.
Type: biochemical
Method: Example A: LSD1 Histone Demethylase Biochemical Assay
LANCE LSD1/KDM1A demethylase assay—10 μL of 1 nM LSD-1 enzyme (ENZO BML-SE544-0050) in the assay buffer (50 mM Tris, pH 7.5, 0.01% Tween-20, 25 mM NaCl, 5 mM DTT) were preincubated for 1 hour at 25° C. with 0.8 μL compound/DMSO dotted in black 384 well polystyrene plates. […] Reactions were stopped by addition of 10 μL 1× LANCE Detection Buffer (PerkinElmer CR97-100) supplemented with 1.5 nM Eu-anti-unmodified H3K4 Antibody (PerkinElmer TRF0404), and 225 nM LANCE Ultra Streptavidin (PerkinElmer TRF102) along with 0.9 mM Tranylcypromine-HCl (Millipore 616431). After stopping the reactions plates were incubated for 30 minutes and read on a PHERAstar FS plate reader (BMG Labtech).

| SMILES | IC50 |
| --- | --- |
| CC(=O)N1CCC(CC#N)(CN[C@@H]2C[C@H]2c2ccccc2)CC1 (relative stereo) [Example 1, (1-Acetyl-4-{[(trans-2-phenylcyclopropyl)amino]methyl}piperidin-4-yl)acetonitrile] | < 0.1 µM |
| COC(=O)N1CCC(CC#N)(CN[C@@H]2C[C@H]2c2ccccc2)CC1 (relative stereo) [Example 2, Methyl 4-(cyanomethyl)-4-{[(trans-2-phenylcyclopropyl)amino]methyl}piperidine-1-carboxylate] | < 0.1 µM |
| CN(C)C(=O)N1CCC(CC#N)(CN[C@@H]2C[C@H]2c2ccccc2)CC1 (relative stereo) [Example 3, 4-(Cyanomethyl)-N,N-dimethyl-4-{[(trans-2-phenylcyclopropyl)amino]methyl}piperidine-1-carboxamide] | < 0.1 µM |
| CS(=O)(=O)N1CCC(CC#N)(CN[C@@H]2C[C@H]2c2ccccc2)CC1 (relative stereo) [Example 4, (1-(Methylsulfonyl)-4-{[(trans-2-phenylcyclopropyl)amino]methyl}piperidin-4-yl)acetonitrile] | < 0.1 µM |
| CN1CCC(CC#N)(CN[C@@H]2C[C@H]2c2ccccc2)CC1 (relative stereo) [Example 5, (1-Methyl-4-{[(trans-2-phenylcyclopropyl)amino]methyl}piperidin-4-yl)acetonitrile] | < 0.1 µM |
| N#CCC1(CN[C@@H]2C[C@H]2c2ccccc2)CCNCC1 (relative stereo) [Example 6, (4-{[(trans-2-Phenylcyclopropyl)amino]methyl}piperidin-4-yl)acetonitrile] | < 0.1 µM |
| N#CCC1(CN[C@@H]2C[C@H]2c2ccccc2)CCN(Cc2cccnc2)CC1 (relative stereo) [Example 7, [4-{[(trans-2-Phenylcyclopropyl)amino]methyl}-1-(pyridin-3-ylmethyl)piperidin-4-yl]acetonitrile] | < 0.1 µM |
| O=C(O)CCN1CCC(CN[C@@H]2C[C@H]2c2ccccc2)(Cc2ccc(F)cc2)CC1 [Example 8, 3-[4-(4-fluorobenzyl)-4-({[(1R,2S)-2-phenylcyclopropyl]amino}methyl)piperidin-1-yl]propanoic Acid] | < 0.1 µM |
| CN(C)C(=O)CCN1CCC(CN[C@@H]2C[C@H]2c2ccccc2)(Cc2ccc(F)cc2)CC1 [Example 10, 3-[4-(4-fluorobenzyl)-4-({[(1R,2S)-2-phenylcyclopropyl]amino}methyl)piperidin-1-yl]-N,N-dimethylpropanamide] | < 0.1 µM |
| Fc1ccc(CC2(CN[C@@H]3C[C@H]3c3ccccc3)CCNCC2)cc1 [Example 11, (1R,2S)—N-{[4-(4-fluorobenzyl)piperidin-4-yl]methyl}-2-phenylcyclopropanamine] | < 0.1 µM |
| Fc1ccc(CC2(CN[C@H]3C[C@@H]3c3ccccc3)CCNCC2)cc1 [Example 12, (1S,2R)—N-{[4-(4-fluorobenzyl)piperidin-4-yl]methyl}-2-phenylcyclopropanamine] | < 0.1 µM |
| O=C(O)CN1CCC(CN[C@@H]2C[C@H]2c2ccccc2)(Cc2ccc(F)cc2)CC1 [Example 13, [4-(4-fluorobenzyl)-4-({[(1R,2S)-2-phenylcyclopropyl]amino}methyl)piperidin-1-yl]acetic] | < 0.1 µM |
| C[C@H](N)C(=O)N1CCC(CN[C@@H]2C[C@H]2c2ccccc2)(Cc2ccc(F)cc2)CC1 [Example 14, (1R,2S)—N-{[1-[(2S)-2-aminopropanoyl]-4-(4-fluorobenzyl)piperidin-4-yl]methyl}-2-phenylcyclopropanamine] | < 0.1 µM |
| C[C@@H](N)C(=O)N1CCC(CN[C@@H]2C[C@H]2c2ccccc2)(Cc2ccc(F)cc2)CC1 [Example 15, (1R,2S)—N-{[1-[(2R)-2-aminopropanoyl]-4-(4-fluorobenzyl)piperidin-4-yl]methyl}-2-phenylcyclopropanamine] | < 0.1 µM |
| O=C(O)CCN1CCC(CN[C@@H]2C[C@H]2c2ccccc2)(Cc2ccccc2F)CC1 [Example 16, 3-[4-(2-fluorobenzyl)-4-({[(1R,2S)-2-phenylcyclopropyl]amino}methyl)piperidin-1-yl]propanoic Acid] | < 0.1 µM |
| O=C(O)CCN1CCC(CN[C@@H]2C[C@H]2c2ccccc2)(Cc2cccc(F)c2)CC1 [Example 17, 3-[4-(3-fluorobenzyl)-4-({[(1R,2S)-2-phenylcyclopropyl]amino}methyl)piperidin-1-yl]propanoic Acid] | < 0.1 µM |
| O=C(O)CCN1CCC(CN[C@@H]2C[C@H]2c2ccccc2)(Cc2ccc(F)cc2F)CC1 [Example 18, 3-[4-(2,4-difluorobenzyl)-4-({[(1R,2S)-2-phenylcyclopropyl]amino}methyl)piperidin-1-yl]propanoic Acid] | < 0.1 µM |
| O=C(O)CCN1CCC(CN[C@@H]2C[C@H]2c2ccccc2)(Cc2cccc(F)c2F)CC1 [Example 19, 3-[4-(2,3-difluorobenzyl)-4-({[(1R,2S)-2-phenylcyclopropyl]amino}methyl)piperidin-1-yl]propanoic Acid] | < 0.1 µM |
| O=C(O)CCN1CCC(CN[C@@H]2C[C@H]2c2ccccc2)(Cc2ccc(F)c(F)c2)CC1 [Example 20, 3-[4-(3,4-difluorobenzyl)-4-({[(1R,2S)-2-phenylcyclopropyl]amino}methyl)piperidin-1-yl]propanoic Acid] | < 0.1 µM |
| COCC1(CN[C@@H]2C[C@H]2c2ccccc2)CCNCC1 [Example 21, (1R,2S)—N-{[4-(methoxymethyl)piperidin-4-yl]methyl}-2-phenylcyclopropanamine] | < 0.1 µM |
| COCC1(CN[C@@H]2C[C@H]2c2ccccc2)CCN(CCC(=O)O)CC1 [Example 22, 3-[4-(methoxymethyl)-4-({[(1R,2S)-2-phenylcyclopropyl]amino}methyl)piperidin-1-yl]propanoic Acid] | < 0.1 µM |
| COCC1(CN[C@@H]2C[C@H]2c2ccccc2)CCN(CCC(=O)N(C)C)CC1 [Example 23, 3-[4-(methoxymethyl)-4-({[(1R,2S)-2-phenylcyclopropyl]amino}methyl)piperidin-1-yl]-N,N-dimethylpropanamide] | < 0.1 µM |
| CNC(=O)CCN1CCC(CN[C@@H]2C[C@H]2c2ccccc2)(COC)CC1 [Example 24, 3-[4-(methoxymethyl)-4-({[(1R,2S)-2-phenylcyclopropyl]amino}methyl)piperidin-1-yl]-N-methylpropanamide] | < 0.1 µM |
| N#CCc1ccc(CC2(CN[C@@H]3C[C@H]3c3ccccc3)CCN(CCC(=O)O)CC2)cc1 [Example 25, 3-[4-[4-(cyanomethyl)benzyl]-4-({[(1R,2S)-2-phenylcyclopropyl]amino}methyl)piperidin-1-yl]propanoic Acid] | < 0.1 µM |
| N#CC1(c2ccc(CC3(CN[C@@H]4C[C@H]4c4ccccc4)CCN(CCC(=O)O)CC3)cc2)CC1 [Example 26, 3-[4-[4-(1-cyanocyclopropyl)benzyl]-4-({[(1R,2S)-2-phenylcyclopropyl]amino}methyl)piperidin-1-yl]propanoic Acid] | < 0.1 µM |
| Cn1cc(-c2cccc(CC3(CN[C@@H]4C[C@H]4c4ccccc4)CCN(CCC(=O)O)CC3)c2)cn1 [Example 27, 3-[4-[3-(1-methyl-1H-pyrazol-4-yl)benzyl]-4-({[(1R,2S)-2-phenylcyclopropyl]amino}methyl)piperidin-1-yl]propanoic Acid] | < 0.1 µM |
| CN1CCC(CN[C@@H]2C[C@H]2c2ccccc2)(Cc2cccc(C(=O)O)c2)CC1 [Example 28, 3-{[1-methyl-4-({[(1R,2S)-2-phenylcyclopropyl]amino}methyl)piperidin-4-yl]methyl}benzoic Acid] | < 0.1 µM |
